From US10047073B2, “Histone deacetylase inhibitors and compositions and methods of use thereof” (CHDI Foundation, Inc., priority 2015, dated 2018)
Where a name gives a salt, the structure may show the parent alone.

Columns and labels:
[1] = system: cellular Class IIa HDAC activity in Jurkat E6-1 cells; test: Inhibition of cellular Class IIa HDAC activity, Cell (Lys-TFA) substrate; assay type: cell-based; conditions: Boc-Lys(TFA)-AMC
Excerpt: Example 17: Analysis of Inhibition of Cellular Class IIa HDAC Activity with Class IIa Histone Deacetylase (HDAC) Inhibitors: Cell (Lys-TFA) Substrate
The potency of Class IIa Histone Deacetylase (HDAC) inhibitors was quantified by measuring the cellular histone deacetylase enzymatic activity using the fluorogenic substrate, Boc-Lys(TFA)-AMC. After penetration in Jurkat E6-1 cells, the substrate was deacetylated to Boc-Lys-AMC. After cell lysis and cleavage by trypsin, the fluorophore AMC was released from the deacetylated substrate only. The fluorescence of the sample was directly related to the histone deacetylase activity in the sample.
Jurkat E6.1 cells were cultured according to standard cell culture protocols in Jurkat E6.1 Growth Media (RPMI without phenol red, 10% FBS, 10 mM HEPES, and 1 mM Sodium Pyruvate). Jurkat E6.1 cells were counted using a Coulter Counter and resuspended in Jurkat E6.1 growth media at a concentration of 75,000 cells/35 μL. 35 μL or 75,000 cells was seeded into Greiner microtitre assay plates. The plates were then incubated at 37° C. and 5% CO2 while other assay components were being prepared.
(§1) Serial dilutions of the HDAC inhibitors and control reference compound (1-(5-(3-((4-(1,3,4-oxadiazol-2-yl)phenoxy)methyl)-1,2,4-oxadiazol-5-yl)thiophen-2-yl)-2,2,2-trifluoroethanone) were made by first resuspending the lyophilized compound to a final concentration of 10 mM in 100% DMSO. Stocks of 70 aliquots of the 10 mM compound in DMSO were prepared and stored at −20° C. From one stock aliquot of each tested compound and the reference compound, a 16-point serial dilution was prepared according to Table 1 using a 125 μL 16-channel Matrix multi-channel pipette.
2 μL (200×) of each diluted solution and each control (full activity: 100% DMSO alone or full inhibition 1 mM) was stamped into V-bottom polypropylene 384-well compound plates using either the Bravo, Janus, or 12.5 μL 16-channel Matrix multi-channel pipette. Each well with the 200× compound solution was diluted 1:20 by the addition of 38 μL Jurkat assay buffer+DMSO (9.5% DMSO, RPMI without phenol red, 0.09% FBS, 9 mM Hepes, and 0.9 mM Sodium Pyruvate equilibrated to r.t.)
5× (500 μM) substrate was prepared just prior to the addition to the assay. The 5× substrate was prepared by diluting a 100 mM Boc-Lys(TFA)-AMC in DMSO solution 1:200 by adding it drop-wise to Jurkat assay medium (RPMI without phenol red, 0.1% FBS, 10 mM Hepes, and 1 mM Sodium Pyruvate equilibrated to 37° C.) while vortexing at slow speed to prevent precipitation.
10 mL of 3× lysis buffer was prepared with 8.8 mL of 3× stock lysis buffer (50 mM Tris-HCl, pH 8.0, 137 mM NaCl, 2.7 mM KCl, 1 mM MgCl2, 1% Nonidet P40 Substitute equilibrated to r.t.) and 1.2 mL of 3 mg/mL Trypsin equilibrated to r.t.
5 μL of each solution of 1:20 diluted compound from above was transferred to the Greiner microtitre assay plates with 75,000 cells/well using the Bravo. Cells were then incubated for 2 hours at 37° C. and 5% CO2. The assay was then started by adding 10 μL of 5× (500 μM) substrate to the assay plate using either the Bravo or 16-channel Matrix multi-channel pipette. The cells were then incubated for 3 hours at 37° C. and 5% CO2. Next, 25 μL of 3× lysis buffer was added to each well using either the 125 μL 16 channel pipette or the Bravo. The assay plate was then incubated overnight (15-16 hours) at 37° C. and 5% CO2. The following day, the plates were shaken on an orbital shaker for 1 minute at 900 rpm. Finally the top read fluorescence (Excitation: 355 nm, Emission: 460 nm) was measured using PerkinElmer EnVision.

[2] = target: human catalytic domain HDAC4 protein (Homo sapiens (Human), UniProt P56524); test: Inhibition of HDAC4 catalytic domain, Boc-Lys(TFA)-AMC fluorogenic substrate; conditions: read-out: HDAC4 Biochemical IC50
Chain of human catalytic domain HDAC4 protein (P56524 648-1032): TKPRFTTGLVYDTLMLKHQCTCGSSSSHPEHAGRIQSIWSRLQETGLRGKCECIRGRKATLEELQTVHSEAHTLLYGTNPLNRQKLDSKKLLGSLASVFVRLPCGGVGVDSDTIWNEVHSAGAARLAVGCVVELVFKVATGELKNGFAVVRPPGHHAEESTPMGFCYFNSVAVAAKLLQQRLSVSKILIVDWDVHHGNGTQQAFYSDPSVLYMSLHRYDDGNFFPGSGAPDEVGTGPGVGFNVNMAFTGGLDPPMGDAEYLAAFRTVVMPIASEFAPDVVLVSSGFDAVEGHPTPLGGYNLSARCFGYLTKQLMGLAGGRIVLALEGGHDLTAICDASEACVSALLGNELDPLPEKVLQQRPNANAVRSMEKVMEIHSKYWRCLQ
Excerpt: Example 13: Analysis of Inhibition of HDAC4 with Class IIa Histone Deacetylase (HDAC) Inhibitors
The potency of Class IIa Histone Deacetylase (HDAC) inhibitors was quantified by measuring the Histone Deacetylase 4 (HDAC4) catalytic domain enzymatic activity using the fluorogenic substrate, Boc-Lys(TFA)-AMC. The substrate was deacetylated to Boc-Lys-AMC by HDAC4. […] The fluorescence of the sample was directly related to the histone deacetylase activity in the sample.
as §1, with “dimethyl sulfoxide (DMSO).” for “DMSO.”, “60 μL” for “70”, “pipette (Matrix Technologies Ltd).” for “pipette.”
2 μL (200×) of each diluted solution and each control (full activity: 100% DMSO alone or full inhibition 1 mM) was stamped into V-bottomed polypropylene 384-well compound plates using either the Bravo (384-well head from Agilent) or 12.5 μL 16-channel Matrix multi-channel pipette (Matrix Technologies Ltd). Each well with the 200× compound solution was diluted 1:20 by the addition of 38 μL assay buffer+DMSO (10.5% DMSO, 45 mM Tris-HCl, 123 mM NaCl, 2.4 mM KCl, and 0.9 mM MgCl2 at pH 8.0 and equilibrated to r.t.).
The HDAC4 catalytic domain enzyme was human catalytic domain HDAC4 protein (amino acids 648-1032) with a C-terminal 6× histidine tag, produced by BioFocus. A working solution of enzyme was prepared from a 500 μg/mL stock aliquot of HDAC4 catalytic domain (thawed on ice) diluted to 0.2 μg/mL with assay buffer (50 mM Tris-HCl, 137 mM NaCl, 2.7 mM KCl, and 1 mM MgCl2 at pH 8 and equilibrated to r.t.) just prior to the addition of the enzyme to the assay.
5× (50 μM) substrate was prepared just prior to the addition to the assay. A 1 mM substrate stock was made by diluting a 100 mM Boc-Lys(TFA)-AMC in DMSO solution 1:100 by adding it drop-wise to assay buffer (equilibrated to r.t.) while vortexing at slow speed to prevent precipitation. The 5× substrate was prepared by diluting the 1 mM substrate solution 1:20 by adding it drop-wise to assay buffer (equilibrated to r.t.) while vortexing at slow speed to prevent precipitation.
3× (30 μM) Developer/Stop Solution was prepared just prior to addition to the plate by diluting a stock solution of 10 mM reference compound 1:333 in 25 mg/mL trypsin (PAA Laboratories Ltd.) equilibrated to r.t.
5 μL of each solution of 1:20 diluted compound from above was transferred to a clear bottomed, black, 384-well assay plate using the Bravo or the Janus (384-well MDT head from Perkin Elmer). Using a 16-channel Matrix multi-channel pipette, 35 μL of the working solution of HDAC4 catalytic domain enzyme (0.2 μg/mL in assay buffer) was transferred to the assay plate. The assay was then started by adding 10 μL of 5× (50 μM) substrate to the assay plates using either the Bravo, Janus or 16-channel Matrix multi-channel pipette. The assay plate was then shaken for two minutes on an orbital shaker at 900 rpm (rotations per minute). Next the plate was incubated for 15 minutes at 37° C. The reaction was stopped by adding 25 μL of 3× (30 μM) developer/stop solution to the assay plates using either the Bravo, Janus or a 16-channel Matrix multi-channel pipette. Assay plates were then shaken for 5 minutes on an orbital shaker at 1200 rpm. Next, the assay plates were incubated at 37° C. for 1 hour in a tissue culture incubator. Finally, the fluorescence was measured (Excitation: 355 nm, Emission: 460 nm) using PerkinElmer EnVision in top read mode.

[3] = system: cellular Class I HDAC activity in Jurkat E6-1 cells; test: Inhibition of cellular Class I HDAC activity, Cell (Lys-Ac) substrate; assay type: cell-based; conditions: Boc-Lys(Ac)-AMC
Procedure: Example 18: Analysis of Inhibition of Cellular Class I HDAC Activity with Class IIa Histone Deacetylase (HDAC) Inhibitors: Cell (Lys-Ac) Substrate
The Class I HDAC activity of Class IIa Histone Deacetylase (HDAC) inhibitors was quantified by measuring the cellular histone deacetylase enzymatic activity using the fluorogenic substrate, Boc-Lys(Ac)-AMC. This was performed according to the procedure in Example 17, using Boc-Lys(Ac)-AMC substrate in place of Boc-Lys(TFA)-AMC.

[4] = Homo sapiens, Jurkat E6.1, Jurkat E6.1 cells

Row | Compound | IC50 [1, 4] | IC50 [2] | IC50 ([3]; Jurkat E6.1 cells) | IC50 ([1]; Jurkat E6.1 cells) | IC50 [3, 4]
1 | O=C(NC1(CN2CCCC2C2CC2)CC1)c1ccc(-c2noc(C(F)(F)F)n2)cc1 (single isomer, unassigned) [Example 6, E1-(abs)-N-(1-((2-Cyclopropylpyrrolidin-1-yl)methyl)cyclopropyl)-4-(5-(trifluoromethyl)-1,2,4-oxadiazol-3-yl)benzamide] | 28 nM | 8 nM | 1500 nM |  | 
2 | O=C(NC1(CN2CCCC2C2CC2)CC1)c1ccc(-c2noc(C(F)(F)F)n2)cc1 (single isomer, unassigned) [Example 7, E2-(abs)-N-(1-((2-Cyclopropylpyrrolidin-1-yl)methyl)cyclopropyl)-4-(5-(trifluoromethyl)-1,2,4-oxadiazol-3-yl)benzamide] |  | 3 nM | 540 nM | 14 nM | 
3 | C[C@H]1CCCN1CC1CC1NC(=O)c1ccc(-c2noc(C(F)(F)F)n2)cc1 (single isomer, unassigned) [Example 11] | 1000 nM | 230 nM |  |  | 36600 nM
4 | O=C(NC1(CN2CCCC3(CC3)C2)CC1)c1ccc(-c2noc(C(F)(F)F)n2)cc1 [Example 1, N-(1-(5-Azaspiro[2.5]octan-5-ylmethyl)cyclopropyl)-4-(5-(trifluoromethyl)-1,2,4-oxadiazol-3-yl)benzamide] | 140 nM | 50 nM |  |  | 2600 nM
5 | O=C(NC1(CN2CCC3(CC2)COC3)CC1)c1ccc(-c2noc(C(F)(F)F)n2)cc1 [Example 2, N-(1-(2-Oxa-7-azaspiro[3.5]nonan-7-ylmethyl)cyclopropyl)-4-(5-(trifluoromethyl)-1,2,4-oxadiazol-3-yl)benzamide] | 240 nM | 110 nM |  |  | 4900 nM
6 | O=C(NC1(CN2CCCC23COC3)CC1)c1ccc(-c2noc(C(F)(F)F)n2)cc1 [Example 3, N-(1-(2-Oxa-5-azaspiro[3.4]octan-5-ylmethyl)cyclopropyl)-4-(5-(trifluoromethyl)-1,2,4-oxadiazol-3-yl)benzamide] | 390 nM | 750 nM |  |  | 8600 nM
7 | O=C(NC1(CN2CC3CCC(C3)C2)CC1)c1ccc(-c2noc(C(F)(F)F)n2)cc1 [Example 4, N-(1-(-3-Azabicyclo[3.2.1]octan-3-ylmethyl)cyclopropyl)-4-(5-(trifluoromethyl)-1,2,4-oxadiazol-3-yl)benzamide] | 690 nM |  |  |  | 7800 nM
8 | O=C(NC1(CN2CCC3(CC2)CC3)CC1)c1ccc(-c2noc(C(F)(F)F)n2)cc1 [Example 5, N-(1-(6-Azaspiro[2.5]octan-6-ylmethyl)cyclopropyl)-4-(5-(trifluoromethyl)-1,2,4-oxadiazol-3-yl)benzamide] | 370 nM | 89 nM |  |  | 2000 nM
9 | CC1(C)CCCN(CC2(NC(=O)c3ccc(-c4noc(C(F)(F)F)n4)cc3)CC2)C1 [Example 8, N-(1-((3,3-Dimethylpiperidin-1-yl)methyl)cyclopropyl)-4-(5-(trifluoromethyl)-1,2,4-oxadiazol-3-yl)benzamide formate] | 45 nM | 30 nM |  |  | 2500 nM
10 | O=C(NC1(CN2CCC3(CC3)C2)CCC1)c1ccc(-c2noc(C(F)(F)F)n2)cc1 [Example 9, N-(1-(5-Azaspiro[2.4]heptan-5-ylmethyl)cyclobutyl)-4-(5-(trifluoromethyl)-1,2,4-oxadiazol-3-yl)benzamide] | 100 nM | 58 nM |  |  | 700 nM
11 | O=C(NC1(CN2CCCC23COC3)CCC1)c1ccc(-c2noc(C(F)(F)F)n2)cc1 [Example 10, N-(1-(2-Oxa-5-azaspiro[3.4]octan-5-ylmethyl)cyclobutyl)-4-(5-(trifluoromethyl)-1,2,4-oxadiazol-3-yl)benzamide] | 390 nM | 750 nM |  |  | 8600 nM
12 | CC1(C)CCCN(CC2(NC(=O)c3ccc(-c4noc(C(F)(F)F)n4)c(F)c3)CC2)C1 [Example 12, N-(1-((3,3-Dimethylpiperidin-1-yl)methyl)cyclopropyl)-3-fluoro-4-(5-(trifluoromethyl)-1,2,4-oxadiazol-3-yl)benzamide] | 312 nM | 76 nM |  |  | 15100 nM
